The values that follow come from patent publication US7145009B2, “Pirazino(aza)indole derivatives” (priority 1999, dated 2006).

One data set deals with food intake. The conditions noted are these: rats, literature reports; cited from earlier work.
Data set [1] concerns the target T1, h5-HT2A receptor (CHO cells) (Homo sapiens, UniProt P28223).
T1 construct: expressed in transfected cells; host or cells: CHO cells
Kind of data set: Functional activity, FLIPR calcium assay, h5-HT2A. The class given is cell-based. The conditions noted are these: for Emax: CHO, read-out: h5-HT2A Relative Efficacy. On the procedure:
(§1) The functional activity of compounds of formula (I) was assayed using a Fluorimetric Imaging Plate reader (FLIPR):
(§2) CHO cells expressing either the h5-HT2C or h5-HT2A receptors were counted and plated into standard 96 well microtitre plates before the day of testing to give a confluent monolayer. The following day the cells were dye loaded with the calcium sensitive dye Fluo 3-AM by incubation with serum free culture maintenance media containing pluronic acid and Fluo 3-AM dissolved in DMSO at 37° C. in a CO2 incubator at 95% humidity for approximately 90 minutes. Unincorporated dye was removed by washing with Hanks balanced salt solution containing 20 mM HEPES and 2.5 mM probenecid (the assay buffer) using an automated cell washer to leave a total volume of 100 μl/well.
(§3) The drug (dissolved in 50 μl of assay buffer) was added at a rate of 70 μl/sec to each well of the FLIPR 96 well plate during fluorescence measurements. The measurements are taken at 1 sec intervals and the maximum fluorescent signal was measured (approx 10–15 secs after drug addition) and compared with the response produced by 10 μM 5-HT (defined as 100%) to which it is expressed as a percentage response (relative efficacy). Dose response curves were constructed using Graphpad Prism (Graph Software Inc.).

The target in data set [2] is T2, h5-HT2C receptor (CHO cells) (Homo sapiens, UniProt P28335).
T2 construct: expressed in transfected cells; host or cells: CHO cells
T2 sequence (P28335 33-458): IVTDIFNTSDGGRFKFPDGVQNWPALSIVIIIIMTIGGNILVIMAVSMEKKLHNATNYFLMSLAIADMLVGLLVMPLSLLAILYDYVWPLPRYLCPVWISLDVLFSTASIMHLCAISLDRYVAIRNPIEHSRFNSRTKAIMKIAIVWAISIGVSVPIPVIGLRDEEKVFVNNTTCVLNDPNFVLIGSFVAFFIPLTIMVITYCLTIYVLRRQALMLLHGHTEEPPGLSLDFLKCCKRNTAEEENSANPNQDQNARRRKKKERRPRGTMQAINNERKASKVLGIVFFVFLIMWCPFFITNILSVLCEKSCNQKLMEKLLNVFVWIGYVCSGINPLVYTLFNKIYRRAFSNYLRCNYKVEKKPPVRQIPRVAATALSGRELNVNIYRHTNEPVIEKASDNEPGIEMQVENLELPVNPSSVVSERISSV
Kind of data set: Functional activity, FLIPR calcium assay, h5-HT2C. In kind it is cell-based. The conditions noted are these: for Emax: CHO, read-out: h5-HT2C Relative Efficacy. On the procedure:
as §1, §2, §3

A further data set deals with T3, 5-HT1A receptors (Homo sapiens, UniProt P08908).
T3 sequence (P08908 1-422): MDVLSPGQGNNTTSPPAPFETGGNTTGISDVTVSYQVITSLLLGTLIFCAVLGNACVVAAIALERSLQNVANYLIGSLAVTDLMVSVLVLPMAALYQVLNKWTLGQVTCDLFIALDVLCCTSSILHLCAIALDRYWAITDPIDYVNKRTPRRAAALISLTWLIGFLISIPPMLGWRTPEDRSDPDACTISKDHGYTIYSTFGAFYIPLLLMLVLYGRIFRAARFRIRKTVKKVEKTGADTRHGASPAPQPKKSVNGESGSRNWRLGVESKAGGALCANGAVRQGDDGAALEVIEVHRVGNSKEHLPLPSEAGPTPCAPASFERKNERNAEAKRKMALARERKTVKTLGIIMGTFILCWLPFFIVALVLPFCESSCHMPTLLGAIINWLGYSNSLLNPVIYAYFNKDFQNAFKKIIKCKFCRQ
The conditions noted are these: literature report; cited from earlier work.

Where [3] appears, read: FLIPR, CHO cells, Fluo 3-AM, read-out: h5-HT2C EC50.

Each structure is given as a SMILES string. Structures can show the parent of a compound that is named as a salt. Where two headings read alike, the source gives them in different places.

T1 sequence (P28223 whole entry): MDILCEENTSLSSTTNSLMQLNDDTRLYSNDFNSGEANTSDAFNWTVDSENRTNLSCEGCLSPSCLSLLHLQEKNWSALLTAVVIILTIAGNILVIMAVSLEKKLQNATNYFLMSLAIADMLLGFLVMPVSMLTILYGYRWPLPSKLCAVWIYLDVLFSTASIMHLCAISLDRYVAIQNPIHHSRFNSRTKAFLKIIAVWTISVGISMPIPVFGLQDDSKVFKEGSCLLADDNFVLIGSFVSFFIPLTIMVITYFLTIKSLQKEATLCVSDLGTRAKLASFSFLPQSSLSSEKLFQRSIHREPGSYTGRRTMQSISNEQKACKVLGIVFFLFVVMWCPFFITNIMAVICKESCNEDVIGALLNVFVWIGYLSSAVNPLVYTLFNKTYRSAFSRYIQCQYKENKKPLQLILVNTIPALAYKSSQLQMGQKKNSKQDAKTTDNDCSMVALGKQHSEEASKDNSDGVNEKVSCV

Regarding `Clc1cccc(N2CCNCC2)c1` [mCPP, m-chlorophenylpiperazine], the “effect on food intake” value in the data set with food intake is recorded as “reduce food intake”.
As to `Clc1cccc2c1CC1CNCCN21` (racemic) (as salt: hydrochloride) [Example 3, (RS) 9-Chloro-1,2,3,4,10,10a-hexahydropyrazino[1,2-a]indole hydrochloride], the melting point is 265 to 269 °C (dec.).
For `Brc1ccc2c(c1)N1CCNCC1C2` (racemic) [Example 4, (RS) 7-Bromo-1,2,3,4,10,10a-hexahydropyrazino[1,2-a]indole hydrochloride], the values for the EC50 in data set [1] and in data set [2] were 244 nM and 13 nM, respectively. The results for the Emax in data set [1] and in data set [2] were 58% and 100%, respectively.
Compound `Fc1cc2c(cc1Cl)N1CCNCC1C2` (racemic) (as salt: fumarate) [Example 12, (RS) 7-Chloro-8-fluoro-1,2,3,4,10,10a-hexahydropyrazino[1,2-a]indole hemifumarate] had a melting point of 195 to 197 °C.
In the case of `Brc1ccc2c(c1)N1CCNCC1C2` (racemic) (as salt: hydrochloride) [Example 4, (RS) 7-Bromo-1,2,3,4,10,10a-hexahydropyrazino[1,2-a]indole hydrochloride], the melting point was in the range of 243 to 245 °C.
The same measure, in the same setting: the same measure for `Clc1ccc2c(c1)CC1CNCCN21` (racemic) (as salt: hydrochloride) [Example 2, (RS) 8-Chloro-1,2,3,4,10,10a-hexahydropyrazino[1,2-a]indole hydrochloride]: 258 to 262 °C (dec.).
For `Clc1ccc2c(c1)N1CCNC[C@H]1C2` [Example 8, (10aR) 7-Chloro-1,2,3,4,10,10a-hexahydropyrazino[1,2-a]indole hydrochloride], the concentration giving a half-maximal response (EC50) was 100 nM in data set [1] and 3 nM in data set [2]. Also, the Emax was found to be 59% in data set [1] and 87% in data set [2].
`Clc1ccc2c(n1)N1CCNCC1C2` (racemic) [Example 6, (RS) 7-Chloro-1,2,3,4,10,10a-6-aza-hexahydropyrazino[1,2-a]-7-indole fumarate]: the 50% effective concentration (EC50) in data set [1] was 1680 nM; in data set [2] (setting [3]), 174 nM. Besides, the values for the Emax in data set [1] and in data set [2] were 47% and 100%, respectively.
On to `Clc1cccc2c1CC1CNCCN21` (racemic) [Example 3, (RS) 9-Chloro-1,2,3,4,10,10a-hexahydropyrazino[1,2-a]indole hydrochloride], for which the EC50 is 1020 nM in data set [1] and 141 nM in data set [2] (setting [3]). The results for the Emax in data set [1] and in data set [2] were 49% and 82%, respectively.
`Clc1ccc2c(n1)N1CCNCC1C2` (racemic) (as salt: fumarate) [Example 6, (RS) 7-Chloro-1,2,3,4,10,10a-6-aza-hexahydropyrazino[1,2-a]-7-indole fumarate]: the melting point was found to be 148 °C.
For `Cc1cc2c(cc1Cl)N1CCNCC1C2` (racemic) [Example 5, (RS) 7-Chloro-8-methyl-1,2,3,4,10,10a-hexahydropyrazino[1,2-a]indole fumarate], in data set [1], the EC50 was 110 nM and the Emax was 87%. Further, in data set [2], the EC50 stood at 20 nM and the Emax was found to be 93%.
For `Fc1cc2c(cc1Cl)N1CCNCC1C2` (racemic) [Example 12, (RS) 7-Chloro-8-fluoro-1,2,3,4,10,10a-hexahydropyrazino[1,2-a]indole hemifumarate], in that order: 106 nM, 74%, 22 nM and 92%.
For `Clc1ccc2c(c1)N1CCNC[C@@H]1C2` [Example 7, (10aS) 7-Chloro-1,2,3,4,10,10a-hexahydropyrazino[1,2-a]indole hydrochloride], in that order: 144 nM, 67%, 161 nM and 86%.
On to `Clc1ccc2c(c1)N1CCNCC1C2` (racemic) (as salt: hydrochloride) [Example 1, (RS) 7-Chloro-1,2,3,4,10,10a-hexahydropyrazino[1,2-a]indole hydrochloride], for which the melting point was 235 °C (dec.).
On the same count and under the same terms, the value for `C[C@H]1CN2c3cc(Cl)ccc3C[C@@H]2CN1` (as salt: hydrochloride) [Example 11, (3S,10aR) 7-Chloro-3-methyl-1,2,3,4,10,10a-hexahydropyrazino[1,2-a]indole hydrochloride] was 265 °C (dec.).
On to `CSc1ccc2c(c1)N1CCNCC1C2` (racemic) [Example 13, (RS) 7(Methylthio)-1,2,3,4,10,10a-hexahydropyrazino[1,2-a]indole fumarate], for which, in data set [1], the half-maximal effective concentration (EC50) was determined as 176 nM and the Emax amounted to 59%. In data set [2], the EC50 amounted to 86 nM and the Emax was 87%.
Take `c1ccc2c(c1)CC1CNCCN21` (centres unmarked) [1,2,3,4,10,10a-Hexahydropyrazino[1,2-a]indole]: the “selectivity for 5-HT1A receptors over 5-HT2 (binding affinity)” value on 5-HT1A receptors was “ten fold”.
In the case of `C[C@H]1CN2c3cc(Cl)ccc3C[C@@H]2CN1` [Example 11, (3S,10aR) 7-Chloro-3-methyl-1,2,3,4,10,10a-hexahydropyrazino[1,2-a]indole hydrochloride], the concentration for a half-maximal effect (EC50) in data set [1] was found to be 527 nM; in data set [2], 58 nM. Further, the Emax in data set [1] was determined as 38%; in data set [2] it was 92%.
Regarding `CSc1ccc2c(c1)N1CCNCC1C2` (racemic) (as salt: fumarate) [Example 13, (RS) 7(Methylthio)-1,2,3,4,10,10a-hexahydropyrazino[1,2-a]indole fumarate], the melting point lay in the range of 196 to 198 °C.
Regarding `Clc1ccc2c(c1)CC1CNCCN21` (racemic) [Example 2, (RS) 8-Chloro-1,2,3,4,10,10a-hexahydropyrazino[1,2-a]indole hydrochloride], the results for the EC50 in data set [1] and in data set [2] (setting [3]) were 667 nM and 162 nM, respectively. The figures for the Emax in data set [1] and in data set [2] were 88% and 84%, respectively.

In general, melting point refers to the temperature of the solid-liquid transition. As usually defined, the EC50 is the concentration needed to bring the measured effect to its halfway point.
